In PubChem BioAssay AID2401 (Southern Research Specialized Biocontainment Screening …, 2010) one finds IC50 data, which are given here for 96 molecules.

Structures are written as SMILES. pIC50: −log10 of the molar value. Some results are limits rather than exact numbers.

This experiment concerns S. Typhimurium GFP reporter counter-screen, fluorescence, 4 h. In words: nmpC-GFP reporter counter-screen in S. Typhimurium, dose response, counter-screen for PhoP regulon inhibitor project, Salmonella Typhimurium, GFP fluorescence (AID 2401).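 Further: S. typhimurium with Mg-insensitive nmpC-GFP reporter grown at 10 µM Mg2+; drop in reporter fluorescence reflects general culture growth inhibition.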 A general note: The purpose of a counterscreen is to sort out artefacts and off-target activity.
On to `COc1cnc(-c2ccccn2)[nH]c1=O`, for which the pIC50 was 4.45. To `COc1c(N2CCN(C(=S)NCc3ccccc3)C(C)C2)c(F)cc2c(=O)c(C(=O)O)cn(C3CC3)c12` (stereo unspecified) belongs 4.04. To `O=C(N/N=C/c1cc(O)ccc1Br)c1cccnc1` belongs 4.60; to `CNC[C@H](Cc1ccccc1)NC[C@@H](Cc1cccc2ccccc12)NCCc1ccc(C)cc1`, 4.58; to `CN(O)/C=c1/ccc2c(n1)C(=O)C=CC=2`, 4.46. To `O=C1NC(=S)S/C1=C\C=C\c1ccc([N+](=O)[O-])o1` belongs 4.66; to `COc1cccc(/C=N\NC(=O)Cn2nnc3ccccc32)c1O`, 4.24; to `CN1CCN(C(c2ccccn2)c2cc(Cl)c3cccnc3c2O)CC1` (stereo unspecified), 4.36. As for `CCOC(=O)N1CCN(C(c2cccnc2)c2ccc3cccnc3c2O)CC1` (stereo unspecified), the negative-log IC50 (pIC50) is 4.38. To `C#CCOCCOCCOCCNc1nc(N2CCN(C(=O)CCCCCCCCCCNC(=O)[C@H](CCCCN)n3cc(C[C@@H](C)CC)nn3)CC2)nc(N2CCN(C(=O)CCCCCCCCCCNC(=O)[C@H](CCCN=C(N)N)n3cc(C[C@@H](C)CC)nn3)CC2)n1` belongs 4.11; to `COc1ccc(Nc2cc(C)c3c(O)cccc3n2)cc1`, 4.33. In the case of `CCCCCCCSc1cc(OC)c(CCN(C)C)cc1OC` it was 4.24; in that of `c1ccc2c(c1)Sc1ccccc1N2CC1CN2CCC1CC2` (stereo unspecified), 3.96; in that of `Nc1ncn([C@@H]2O[C@H](CO)[C@@H](O)[C@H]2O)c(=O)n1`, 4.47.

`Nc1c(Cl)ncnc1N/N=C/c1ccccn1`: the pIC50 is 4.59. With `O=c1[nH][nH]c(-c2ccccc2O)c1C(C[N+](=O)[O-])c1ccc(Br)cc1` (stereo unspecified), the negative-log IC50 (pIC50) was 4.29. Take `O=C(NC(CO)Cc1ccc([N+](=O)[O-])cc1)C(Cl)Cl` (stereo unspecified): the pIC50 was 4.90. To `c1ccc(C2CNCc3c2ccc2ccccc32)cc1` (stereo unspecified) belongs 3.86; to `CC(C(=O)NC1CCS(=O)(=O)C1)N1C(=O)/C(=C/c2ccc(Cl)cc2)SC1=S` (stereo unspecified), 4.94; to `Cc1nnc(N/N=C/c2ccccn2)[nH]c1=O`, 4.75. In the case of `Cc1cc(SCC(=O)N/N=C/c2ccc(O)c(O)c2O)c(C)cc1Br` it was 4.51; in that of `Oc1cc(Cl)ccc1Oc1ccc(Cl)cc1Cl`, 6.31. To `O=C(CN1CCCC1)N/N=C/c1c(O)ccc2ccccc12` belongs 4.52. With `O=C(c1cccs1)c1no[n+]([O-])c1C(=O)c1cccs1`, the negative-log IC50 (pIC50) was 4.41. In the case of `NC1=NC[C@@H](Cc2ccc(O)cc2)N1CCCCC1CCCCC1` it was 4.48.

Consider `O=C1OCC(CO)(CO)N=C1NNc1ccc(Cl)c(Cl)c1`, for which the pIC50 was 3.96.

As for `O=C(N/N=C/c1c[nH]c2ccccc12)c1cc(-c2cccc3ccccc23)n[nH]1`, the pIC50 is 4.07.

In the case of `Fc1ccccc1CCNCc1ccccc1`, the pIC50 was 4.44. To `COc1cc(Cc2cc(N)nc(N)n2)cc(OC)c1OC` belongs 6.13. In the case of `CN1CCc2c(sc(NC(=O)c3ccc([N+](=O)[O-])o3)c2C(N)=O)C1` it was 4.32.

For the molecule `CCC(C)(C)c1ccc(OCCCC[n+]2ccc(C)cc2)c(C(C)(C)CC)c1`, the pIC50 was 4.31.

With `CCCCCCCCCC[n+]1cccc2c3ccccc3ccc21`, the negative-log IC50 (pIC50) was 4.63.

Regarding `CCCCCC(CC(=O)NO)C(=O)NC(C(=O)N1CCCC1CO)C(C)C` (stereo unspecified), the pIC50 was 3.84.

As to `Cc1cc2nc3ccc(=[N+](C)C)cc-3sc2cc1N`, the pIC50 is 4.44. To `CO/N=C(/C(=O)N[C@@H]1C(=O)N2C(C(=O)O)=CCS[C@H]12)c1cnc(N)s1` belongs 4.73; to `NC1CCN(c2c(F)cc3c(=O)c(C(=O)O)cn(C4CC4)c3c2Cl)C1` (stereo unspecified), above 6.64. Take `CCN1CCN(C(c2ccc(C(F)(F)F)cc2)c2ccc3cccnc3c2O)CC1` (stereo unspecified): the pIC50 is 4.40.

For `O=C(N/N=C/c1cc([N+](=O)[O-])ccc1O)C1CC1`, the pIC50 was 4.47.

For `C=CC1=C(C(=O)O)N2C(=O)[C@@H](NC(=O)/C(=N\O)c3csc(N)n3)[C@H]2SC1` (stereo in doubt), the pIC50 is 4.48. Regarding `COc1ccc(CNC[C@@H](CCCCN(C)Cc2ccc(OC)cc2)N2C[C@H](c3ccccc3)N(CCc3ccc(Cl)c(Cl)c3)C(=O)C2=O)cc1`, the pIC50 was 4.34. Consider `Cc1conc1NC(c1cccs1)c1ccc2cccnc2c1O` (stereo unspecified), for which the pIC50 is 4.60. To `Nc1cc2nsnc2cc1Br` belongs 4.11.

Turning to `CN1/C(=C\C=C\C2=[N+](C)c3ccc4ccccc4c3C2(C)C)C(C)(C)c2ccccc21`, the pIC50 is 5.03. In the case of `CCOc1ccc(Nc2nc(N)c3ccccc3n2)cc1` it was 4.06; in that of `O=Cc1ccc(O)c2ncccc12`, 5.09; in that of `O=c1c(O)cccc2cc(O)c(O)c(O)c12`, 4.66. In the case of `NCCc1c(-c2ccccc2)n(-c2ccccc2)c2ccccc12` it was 4.36; in that of `COc1cc([N+](=O)[O-])cc(/C=N\NC(=O)C2COc3ccccc3O2)c1O` (stereo unspecified), 4.07. In the case of `FC(F)(F)c1ccc2c(c1)N(CCCN1CCN(CCCl)CC1)c1ccccc1S2` it was 3.96; in that of `Oc1ccc(CN2CCN(Cc3ccccc3)CC2)c2cccnc12`, 4.46; in that of `CN1CCN(c2cc3c(cc2F)c(=O)c(C(=O)O)cn3CCF)CC1`, 6.03. `C/C(=N\NC(=O)c1cc2ccccc2cc1O)c1ccccn1`: the pIC50 was 4.77.

For the molecule `CCCCCCCCCCCCCCCC[N+](C)(C)C`, the pIC50 is 4.52. With `CN(C)S(=O)(=O)c1cccc(NC(=S)N/N=C/c2cc(Br)ccc2O)c1`, the pIC50 was 4.49. For `CCCCCCCCCCCCCCCC[N+](C)(C)CC`, the pIC50 was 4.59. In the case of `COc1ccc(C(C[N+](=O)[O-])c2c(-c3ccccc3)cc3ccccn23)cc1` (stereo unspecified) it was 4.52; in that of `CN(Cc1ccccc1)CC(O)COc1ccc(CNCc2ccc(Cl)s2)cc1` (stereo unspecified), 4.04.

Regarding `NC(N)=N/N=C/c1ccc(OCc2ccc(Cl)cc2)cc1`, the pIC50 is 4.45. On to `Oc1cccc(/C=N/Nc2ccc(Cl)nn2)c1O`, for which the pIC50 is 4.74.

Take `C=CC1=C(C(=O)O)N2C(=O)[C@@H](NC(=O)/C(=N/OCC(=O)O)c3csc(N)n3)[C@H]2SC1`: the pIC50 was 4.52.

With `CCCCCCCNC(=O)C1(CC2CC(c3cccc(Br)c3)=NO2)CCNCC1` (stereo unspecified), the pIC50 was 4.42. For the molecule `CCN1CCN(C(c2cccnc2)c2cc(Cl)c3cccnc3c2O)CC1` (stereo unspecified), the pIC50 is 4.44. In the case of `Oc1c(CN2CCCCC2)cc(COCc2ccccc2)c2cccnc12` it was 4.09; in that of `O=C(c1ccc(F)cc1)C(CN1CCOCC1)c1ccccc1` (stereo unspecified), 3.84; in that of `Cc1c2ccncc2c(C)c2c1[nH]c1ccccc12`, 4.71. To `COc1ccc(-c2ccc3c(N)c(C(=O)c4cccc(OC)c4)sc3n2)cc1` belongs 4.08; to `CO[C@H]1/C=C/O[C@@]2(C)Oc3c(C)c(O)c4c(O)c(c(C=NN5CCN(C)CC5)c(O)c4c3C2=O)NC(=O)/C(C)=C\C=C\[C@H](C)[C@H](O)[C@@H](C)[C@@H](O)[C@@H](C)[C@H](OC(C)=O)[C@@H]1C`, 5.19; to `CCOc1ccc(NC(=O)c2ccc(NC(=O)c3cn4c5c(c(N6CCN(C)CC6)c(F)cc5c3=O)OCC4C)cc2)cc1` (stereo unspecified), 5.19. To `CCCCCN=C(N)N/N=C/c1c[nH]c2ccc(OC)cc12` belongs 4.43. Turning to `Cc1cc(C)c(NC(=O)c2cn3c4c(c(N5CCN(C)CC5)c(F)cc4c2=O)OCC3C)c(C)c1` (stereo unspecified), the negative-log IC50 (pIC50) is 4.47. As for `O=[N+]([O-])c1ccc(O)c(/C=N/Nc2ccccn2)c1`, the pIC50 was 4.86. Consider `CN1CCN(CCCN2c3ccccc3Sc3ccc(Cl)cc32)CC1`, for which the pIC50 is 4.29. In the case of `CCCCCCCSc1cc(OC)c(CCNC)cc1OC` it was 4.41; in that of `CCCCCCCCCCCCCCCCn1cc[n+](C)c1`, 4.79; in that of `Oc1cccc(C=NCc2ccccc2)c1O`, 3.84. In the case of `Cc1ccc(S(=O)(=O)Nc2cc(Cl)c(O)c3ncccc23)cc1` it was 4.54. In the case of `O=C(C[n+]1cccc(CNC(=O)c2ccc(OC(F)F)cc2)c1)Nc1ccc(SC(F)F)cc1`, the pIC50 was 4.11. Regarding `OC(CNCCc1ccccc1)COc1ccc(OCC(O)CNCCc2ccccc2)cc1` (stereo unspecified), the negative logarithm of the IC50 (pIC50) was 4.20. To `Cc1ccc(Cn2c(=N)n(CC(=O)c3ccc([N+](=O)[O-])cc3)c3ccccc32)cc1` belongs 3.99; to `CCn1cc(C(=O)NCCCN(C)C)c(=O)c2cc(F)c(N3CCN(C)CC3)cc21`, 4.06. In the case of `O=[N+]([O-])c1cc(CN2CCOCC2)c2cccnc2c1O` it was 4.57; in that of `O=C(N/N=C\c1cccc([N+](=O)[O-])c1O)C1COc2ccccc2O1` (stereo unspecified), 4.26; in that of `C/C(=N\N=C(N)N)c1ccc(Cl)c(Cl)c1`, 4.03. In the case of `CCN(CC)S(=O)(=O)c1cccc(C(=O)N/N=C/c2ccc(O)c(O)c2O)c1` it was 4.01. Take `O=C(Oc1c(CN2CCOCC2)cc(Cl)c2cccnc12)c1ccc(F)cc1`: the pIC50 was 3.87. To `O=C(Cn1nc(CNc2ccc(Cl)cc2)[n+]2c1CCCCC2)c1ccc(Br)cc1` belongs 4.14. In the case of `Clc1ccc(Cl)c(OCCCCNCc2ccccc2)c1` it was 4.01; in that of `O=c1cc2oc3cc(O)c(O)cc3c(-c3ccccc3[N+](=O)[O-])c-2cc1O`, 4.55.

`Cc1nc(N)c(Cc2ccc(Cl)cc2Cl)c(N)n1`: the negative logarithm of the IC50 (pIC50) was 4.39.

As to `CCCCCCCCCCOC(=O)Cn1c(COc2ccc(C)cc2)[n+](C)c2ccccc21`, the pIC50 is 4.70. As for `COc1ccc(C(=O)N/N=C/c2sc3ccccc3c2O)cc1`, the negative logarithm of the IC50 (pIC50) is 4.38. To `Cc1ccc(S(=O)(=O)/N=C2/C=C(Sc3ncn[nH]3)C(=O)c3ccccc32)c(C)c1` belongs 3.83; to `CN(C)C1C(=O)C(C(N)=O)=C(O)C2(O)C(=O)C3=C(O)c4c(O)cccc4C(C)(O)C3C(O)C12` (stereo unspecified), 6.24. In the case of `O=[N+]([O-])c1cc(/C=N/Nc2nc3ccccc3[nH]2)c(O)cc1O` it was 4.74. In the case of `C=C1c2c(Cl)ccc(O)c2C(O)=C2C(=O)[C@]3(O)C(O)=C(C(N)=O)C(=O)[C@@H](N(C)C)[C@@H]3[C@@H](O)C12` (stereo partly specified) it was 5.89. `CN(C)C1C(=O)C(C(N)=O)=C(O)C2(O)C(=O)C3=C(O)c4c(O)cccc4C(C)(O)C3CC12` (stereo unspecified): the pIC50 is 6.00.

Broadly, the pIC50 is −log10 of the IC50, conventionally taken in molar units.
